Data as given in ChEMBL document CHEMBL1135258, “Substrate spectrum of tyrocidine thioesterase probed with randomized peptide N-acetylcysteamine thioesters” (Bioorg Med Chem Lett, 2002).

What was measured:
[1] = target: T1, Thioesterase GrsT homolog tycF (Brevibacillus brevis) (UniProt O30412); test: Apparent kinetic constant (Kcat) for tyrocidine thioesterase amplified from Bacillus brevis (ATCC8185)
T1 sequence (whole entry): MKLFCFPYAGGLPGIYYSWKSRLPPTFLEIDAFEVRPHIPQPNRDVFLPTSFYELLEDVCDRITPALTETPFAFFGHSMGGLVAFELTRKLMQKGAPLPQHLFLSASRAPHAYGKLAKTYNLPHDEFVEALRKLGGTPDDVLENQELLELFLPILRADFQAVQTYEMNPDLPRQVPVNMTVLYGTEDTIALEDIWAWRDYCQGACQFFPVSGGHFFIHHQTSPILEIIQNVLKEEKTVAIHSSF

[2] = target: T1, Thioesterase GrsT homolog tycF (Brevibacillus brevis); test: Catalytic efficiency (Kcat/Km) was determined; parameters: unit not given here

Row | k cat [1] [s⁻¹] | Ratio [2] | SMILES
1 | 0.133 | 0.42 | CC(=O)NCCSC(=O)[C@H](CC(C)C)NC(=O)[C@H](CCCN)NC(=O)[C@@H](NC(=O)[C@H](Cc1ccc(O)cc1)NC(=O)[C@H](CCC(N)=O)NC(=O)[C@H](CC(N)=O)NC(=O)[C@H](CC(N)=O)NC(=O)[C@H](Cc1ccccc1)NC(=O)[C@@H]1CCCN1C(=O)[C@H](N)Cc1ccccc1)C(C)C
2 | 0.16 | 0.18 | CC(=O)NCCSC(=O)[C@H](CC(C)C)NC(=O)[C@H](CCCN)NC(=O)[C@@H](NC(=O)[C@H](Cc1ccc(O)cc1)NC(=O)[C@@H](NC(=O)[C@H](CC(N)=O)NC(=O)[C@@H](Cc1ccccc1)NC(=O)[C@H](Cc1ccccc1)NC(=O)[C@@H]1CCCN1C(=O)[C@H](N)Cc1ccccc1)C(C)C)C(C)C
3 | 0.45 | 0.19 | CC(=O)NCCSC(=O)[C@H](CC(C)C)NC(=O)[C@H](CCCN)NC(=O)[C@@H](NC(=O)[C@H](Cc1ccc(O)cc1)NC(=O)[C@H](CCC(N)=O)NC(=O)[C@H](CC(N)=O)NC(=O)[C@@H](NC(=O)[C@H](Cc1ccccc1)NC(=O)[C@@H]1CCCN1C(=O)[C@H](N)Cc1ccccc1)C(C)C)C(C)C
4 | 0.267 | 0.8 | CSCC[C@H](NC(=O)[C@H](Cc1ccccc1)NC(=O)[C@@H]1CCCN1C(=O)[C@H](N)Cc1ccccc1)C(=O)N[C@@H](CC(N)=O)C(=O)N[C@@H](CCC(N)=O)C(=O)N[C@@H](Cc1ccc(O)cc1)C(=O)N[C@H](C(=O)N[C@@H](CCCN)C(=O)N[C@@H](CC(C)C)C(=O)SCCNC(C)=O)C(C)C
5 | 0.105 | 1.3 | CC(=O)NCCSC(=O)[C@H](CC(C)C)NC(=O)[C@H](CCCN)NC(=O)[C@@H](NC(=O)[C@H](Cc1ccc(O)cc1)NC(=O)[C@H](CCC(N)=O)NC(=O)[C@H](CC(N)=O)NC(=O)[C@H](Cc1ccccc1)NC(=O)[C@H](Cc1ccccc1)NC(=O)[C@@H]1CCCN1C(=O)[C@H](N)Cc1ccccc1)C(C)C
6 | 0.11 | 0.57 | CC(=O)NCCSC(=O)[C@H](CC(C)C)NC(=O)[C@H](CCCN)NC(=O)[C@@H](NC(=O)[C@H](Cc1ccc(O)cc1)NC(=O)[C@H](CCC(N)=O)NC(=O)[C@H](CC(N)=O)NC(=O)[C@H](CCC(=O)O)NC(=O)[C@H](Cc1ccccc1)NC(=O)[C@@H]1CCCN1C(=O)[C@H](N)Cc1ccccc1)C(C)C
7 | 0.167 | 0.23 | CC(=O)NCCSC(=O)[C@H](CC(C)C)NC(=O)[C@H](CCCN)NC(=O)[C@@H](NC(=O)[C@H](Cc1ccc(O)cc1)NC(=O)[C@H](CCC(N)=O)NC(=O)[C@H](CC(C)C)NC(=O)[C@@H](Cc1ccccc1)NC(=O)[C@H](Cc1ccccc1)NC(=O)[C@@H]1CCCN1C(=O)[C@H](N)Cc1ccccc1)C(C)C
8 | 0.717 | 0.32 | CC(=O)NCCSC(=O)[C@H](CC(C)C)NC(=O)[C@H](CCCN)NC(=O)[C@@H](NC(=O)[C@H](Cc1ccc(O)cc1)NC(=O)[C@H](CC(C)C)NC(=O)[C@H](CC(N)=O)NC(=O)[C@@H](Cc1ccccc1)NC(=O)[C@H](Cc1ccccc1)NC(=O)[C@@H]1CCCN1C(=O)[C@H](N)Cc1ccccc1)C(C)C
9 | 0.233 | 0.22 | CC(=O)NCCSC(=O)[C@H](CC(C)C)NC(=O)[C@H](CCCN)NC(=O)[C@H](CCC(N)=O)NC(=O)[C@H](Cc1ccc(O)cc1)NC(=O)[C@H](CCC(N)=O)NC(=O)[C@H](CC(N)=O)NC(=O)[C@@H](Cc1ccccc1)NC(=O)[C@H](Cc1ccccc1)NC(=O)[C@@H]1CCCN1C(=O)[C@H](N)Cc1ccccc1
10 | 0.733 | 4.78 | CC(=O)NCCSC(=O)[C@H](CC(C)C)NC(=O)[C@H](CCCN)NC(=O)[C@@H](NC(=O)[C@H](Cc1ccc(O)cc1)NC(=O)[C@H](CCC(N)=O)NC(=O)[C@H](CC(N)=O)NC(=O)[C@@H](Cc1ccccc1)NC(=O)[C@H](Cc1ccccc1)NC(=O)[C@@H]1CCCN1C(=O)[C@H](N)Cc1ccccc1)C(C)C (stereo in doubt; form 1)
